PMC7247680, “Novel Indole-Based Hydrazones as Potent Inhibitors of the α-class Carbonic Anhydrase from Pathogenic Bacterium Vibrio cholerae” (International Journal of Molecular Sciences, 2020)

Molecular target: T1, VcCA (α-class carbonic anhydrase from Vibrio cholerae) (Vibrio cholerae, UniProt Q9KMP6)
T1 construct: gene VC_A0274
Test: stopped-flow CO2 hydration assay, Cheng-Prusoff
Type: biochemical
Conditions: read-out: KI * (nM) / VcCA; CO2 substrate, pH 7.4, 10 mM Hepes, 0.1 M NaClO4, 25 °C, 15 min pre-incubation

T1 sequence (Q9KMP6 21-239 limits assumed): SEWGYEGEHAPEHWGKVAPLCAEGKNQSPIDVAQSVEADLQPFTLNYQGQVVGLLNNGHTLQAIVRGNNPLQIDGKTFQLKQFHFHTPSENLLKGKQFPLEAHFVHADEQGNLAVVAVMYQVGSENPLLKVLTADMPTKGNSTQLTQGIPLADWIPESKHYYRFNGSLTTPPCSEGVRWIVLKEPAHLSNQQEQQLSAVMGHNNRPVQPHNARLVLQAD

Point of comparison: CC(CC(C)C)=NNC(=O)c1[nH]c2ccc(S(N)(=O)=O)cc2c1-c1ccccc1 [compound 15, 15 (R = CH3, R1 = isobutyl)], Ki 79.6 nM. Against it:
- NS(=O)(=O)c1ccc2[nH]c(C(=O)NN=C3CCC(c4ccccc4)CC3)c(-c3ccccc3)c2c1 (stereo not shown) [compound 21, 21 (R/R1 = 4-phenylcyclohexyl)] — 1.5-fold lower, 52.1 nM
- NS(=O)(=O)c1ccc2[nH]c(C(=O)NN=Cc3ccncc3)c(-c3ccccc3)c2c1 [compound 8, 8 (R = H, R1 = pyridin-4-yl)] — within 1.5-fold, 72.1 nM
- NS(=O)(=O)c1ccc2[nH]c(C(=O)NN=Cc3cccnc3)c(-c3ccccc3)c2c1 [compound 7, 7 (R = H, R1 = pyridin-3-yl)] — within 1.5-fold, 74.2 nM
- NS(=O)(=O)c1ccc2[nH]c(C(=O)NN=Cc3c[nH]c4ccccc34)c(-c3ccccc3)c2c1 [compound 9, 9 (R = H, R1 = indol-3-yl)] — within 1.5-fold, 60.5 nM
- NS(=O)(=O)c1ccc2[nH]c(C(=O)NN=Cc3cccs3)c(-c3ccccc3)c2c1 [compound 4, 4 (R = H, R1 = thiophen-2-yl)] — within 1.5-fold, 80.4 nM
- CN1CCC(=NNC(=O)c2[nH]c3ccc(S(N)(=O)=O)cc3c2-c2ccccc2)CC1 [compound 23, 23 (R/R1 = 1-methylpiperidin-4-yl)] — 3.2-fold lower, 25.2 nM
- Cn1cccc1C=NNC(=O)c1[nH]c2ccc(S(N)(=O)=O)cc2c1-c1ccccc1 [compound 6, 6 (R = H, R1 = 1-CH3-pyrrol-2-yl)] — within 1.5-fold, 74.1 nM
- NS(=O)(=O)c1ccc2[nH]c(C(=O)NN=Cc3ccc(Br)s3)c(-c3ccccc3)c2c1 [compound 5, 5 (R = H, R1 = 5-Br-thiophen-2-yl)] — within 1.5-fold, 94.8 nM
- C=NNC(=O)c1[nH]c2ccc(S(N)(=O)=O)cc2c1-c1ccccc1 [compound 10, 10 (R = H, R1 = H)] — 1.7-fold lower, 46.6 nM
- NS(=O)(=O)c1ccc2[nH]c(C(=O)NN=C3CCN(Cc4ccccc4)CC3)c(-c3ccccc3)c2c1 [compound 24, 24 (R/R1 = 1-benzylpiperidin-4-yl)] — within 1.5-fold, 92.4 nM
- CCC1CCC(=NNC(=O)c2[nH]c3ccc(S(N)(=O)=O)cc3c2-c2ccccc2)CC1 (stereo not shown) [compound 19, 19 (R/R1 = 4-ethylcyclohexyl)] — within 1.5-fold, 62.1 nM
- CCCC1CCC(=NNC(=O)c2[nH]c3ccc(S(N)(=O)=O)cc3c2-c2ccccc2)CC1 (stereo not shown) [compound 20, 20 (R/R1 = 4-propylcyclohexyl)] — within 1.5-fold, 67.5 nM
- CC(C)=NNC(=O)c1[nH]c2ccc(S(N)(=O)=O)cc2c1-c1ccccc1 [compound 12, 12 (R = CH3, R1 = CH3)] — 3.5-fold lower, 22.8 nM
- CC1CCC(=NNC(=O)c2[nH]c3ccc(S(N)(=O)=O)cc3c2-c2ccccc2)CC1 (stereo not shown) [compound 18, 18 (R/R1 = 4-methylcyclohexyl)] — within 1.5-fold, 71.4 nM
- NS(=O)(=O)c1ccc2[nH]c(C(=O)NN=C3CCCCC3)c(-c3ccccc3)c2c1 [compound 17, 17 (R/R1 = cyclohexyl)] — within 1.5-fold, 81.4 nM
- CC=NNC(=O)c1[nH]c2ccc(S(N)(=O)=O)cc2c1-c1ccccc1 [compound 11, 11 (R = H, R1 = CH3)] — 2.9-fold lower, 27.1 nM
- NS(=O)(=O)c1ccc2[nH]c(C(=O)NN=C3CCCC3)c(-c3ccccc3)c2c1 [compound 16, 16 (R/R1 = cyclopentyl)] — within 1.5-fold, 68 nM
- CC(C)(C)C1CCC(=NNC(=O)c2[nH]c3ccc(S(N)(=O)=O)cc3c2-c2ccccc2)CC1 (stereo not shown) [compound 22, 22 (R/R1 = 4-tert-butylcyclohexyl)] — 2.3-fold lower, 34.1 nM
